# According to US20020104106A1, “Non-mammalian transgenic animal model for cellular proliferative diseases” (priority 1999, published 2002):
# Test system: tumor fly model
# Test: Screening assay: extracts fed to v-myb tumor flies, delay of tumor progression
# Type: in vivo, Drosophila melanogaster
# Conditions: extract concentration fed to the larva/fly that delayed tumor progression by 20% or more
# Procedure: In the screening methods of the subject invention, a quantity of a candidate agent is generally orally administered to the fly. Following oral administration, the affect of the candidate agent on the metastatic tumors (or appearance thereof) of the fly is determined, typically by comparison with a control (i.e. a transgenic fly to which the candidate agent has not been administered). The affect of the candidate agent is determined by determining whether one or more of the phenotypic characteristics of the neoplastic condition are exacerbated or ameliorated in the test fly as compared to the control fly, where characteristics that are monitored include tumor growth, tumor metastasis, and the like. The candidate agent is generally orally administered to the fly by mixing the agent into the fly nutrient medium, e.g. water, aqueous solution with additional nutrient agents, etc., and placing the medium in the presence of the fly, (either the larva or adult fly, usually the adult fly) such that the fly feeds on the medium. Generally a plurality of assay mixtures are run in parallel with different agent concentrations to obtain a differential response to the various concentrations of candidate agent. Typically, one of these concentrations serves as a negative control, i.e. no compound. […]
smiles,measurement,value
CC(C)=CCC/C(C)=C/C=C/C(C)=C/C=C/C(C)=C/C=C/C=C(C)/C=C/C=C(C)/C=C/C=C(\C)CCC=C(C)C [Lycopene],Positive antitumor activity dose range,.01%-100%
